PMC12030627, “Radioiodinated Bicyclic RGD Peptide Derivatives for Enhanced Tumor Accumulation” (Pharmaceuticals, 2025)
Where “and” joins values, the source holds several entries; their conditions need not be identical. Identical values can stand only once. Starred links: 1 amine or outer side, 2 acyl side, 3 side chain; linkers in the order of their positions; H or OH if unused. Positions of bridges follow the written chain, without caps; N, C: chain ends. Non-standard residues stand in square brackets, D forms with d. Residues, ends and D or L forms follow the SMILES beside them. *: point of attachment. Butanoyl(4-(4-I-phenyl)) = O=C(CCCc1ccc(I)cc1)*; TBMB = c1c(C[*:1])cc(C[*:3])cc1C[*:2]; Palmitoyl = CCCCCCCCCCCCCCCC(=O)*; Benzoyl(3-I) = O=C(c1cccc(I)c1)*; 4Abz = Nc1ccc(C(=O)O)cc1

Assays:
[1] = Albumin binding, size-exclusion spin column elution after incubation with mouse plasma; type: in vitro ADME; conditions: 37 kBq in 50 μL PBS(–) incubated 37 °C 10 min with 200 μL mouse plasma (male ddY); Sephadex G-50 Fine spin column, 2000 rpm 2 min; γ-counter; eluted/added radioactivity × 100
Method: (§1) To assess albumin binding, mouse plasma was obtained by centrifugation of whole blood from male ddY mice (9 weeks old). [^125I]bcRGD, [^125I]bcRGDpal, [^125I]bcRGDiba, or [^125I]bcRGDdimer (37 kBq) in 50 μL PBS(–) was incubated at 37 °C for 10 min with 200 μL of PBS(–), mouse plasma, or human serum albumin (HSA, 45 mg/mL in PBS(–); Wako Pure Chemical Industries, Osaka, Japan). The mixtures were applied to gel filtration spin columns (Sephadex G-50 Fine; Cytiva, Tokyo, Japan), centrifuged (2000 rpm, 2 min), and radioactivity in the eluted fraction was measured with a γ-counter. The high molecular weight fraction was calculated as the elution ratio = (radioactivity in elution)/(added radioactivity) × 100 (%).

[2] = Octanol–water distribution coefficient (log D); type: physicochemical; conditions: shake-flask 1-octanol/PBS(–) pH 7.4, 1.0 mL each (1:1), 40 kBq, vortexed 2 min, centrifuged 5000 rpm 5 min, radioactivity by γ-counter, mean of n = 4
Method: For log D determination, [^125I]bcRGD, [^125I]bcRGDpal, [^125I]bcRGDiba, or [^125I]bcRGDdimer (40 kBq) was dissolved in 1.0 mL PBS(–) (pH 7.4) and mixed with 1.0 mL 1-octanol (1:1, v/v). The mixture was vortexed for 2 min and centrifuged at 5000 rpm for 5 min. Radioactivity in 0.5 mL of each phase was measured using a γ-counter, and log D values were calculated based on the radioactivity distribution (n = 4).

[3] = biological target: T1, human serum albumin (HSA) (Homo sapiens, UniProt P02768); experiment: Albumin binding, size-exclusion spin column elution after incubation with HSA; type: in vitro ADME; conditions: 37 kBq in 50 μL PBS(–) incubated 37 °C 10 min with 200 μL HSA 45 mg/mL in PBS(–); Sephadex G-50 Fine spin column, 2000 rpm 2 min; γ-counter; eluted/added radioactivity × 100
T1 construct: purchased Wako Pure Chemical Industries
Method: as §1

T1 sequence (P02768 25-609): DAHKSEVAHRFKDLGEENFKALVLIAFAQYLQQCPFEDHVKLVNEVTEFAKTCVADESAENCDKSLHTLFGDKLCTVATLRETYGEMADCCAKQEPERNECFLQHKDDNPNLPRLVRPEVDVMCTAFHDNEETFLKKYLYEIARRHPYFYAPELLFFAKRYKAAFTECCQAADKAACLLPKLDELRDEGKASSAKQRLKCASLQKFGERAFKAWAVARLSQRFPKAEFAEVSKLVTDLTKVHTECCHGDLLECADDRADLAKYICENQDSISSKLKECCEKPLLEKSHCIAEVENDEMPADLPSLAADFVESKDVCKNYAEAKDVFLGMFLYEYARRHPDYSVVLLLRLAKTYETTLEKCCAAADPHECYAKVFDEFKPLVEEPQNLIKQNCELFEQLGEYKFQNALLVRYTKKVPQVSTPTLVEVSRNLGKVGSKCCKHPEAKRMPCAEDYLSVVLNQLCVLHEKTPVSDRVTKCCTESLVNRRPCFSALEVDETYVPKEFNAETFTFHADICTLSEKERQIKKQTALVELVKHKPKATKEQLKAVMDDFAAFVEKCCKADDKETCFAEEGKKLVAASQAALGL

| Compound | Elution rate from size-exclusion resin (high molecular weight fraction), mouse plasma [1] | logD [2] | Elution rate from size-exclusion resin (high molecular weight fraction), HSA [3] |
| --- | --- | --- | --- |
| N=C(N)NCCC[C@@H]1NC(=O)[C@H]2CSCc3cc(cc(c3)CSC[C@H](C(N)=O)NC(=O)[C@H](CC(=O)O)NC(=O)CNC1=O)CSC[C@H](NC(=O)CNC(=O)[C@H](CO)NC(=O)c1ccc(NC(=O)CNC(=O)[C@H](CO)NC(=O)[C@@H]3CCCN3C(=O)[C@@H]3CCCN3C(=O)[C@@H]3CCCN3C(=O)CCc3cn(CC[C@H](NC(=O)CCNC(=O)c4cccc(I)c4)C(=O)N4CCC[C@H]4C(=O)N4CCC[C@H]4C(=O)N4CCC[C@H]4C(=O)N[C@@H](CO)C(=O)NCC(=O)Nc4ccc(C(=O)N[C@@H](CO)C(=O)NCC(=O)N[C@H]5CSCc6cc7cc(c6)CSC[C@@H](NC(=O)[C@H](CCC(N)=O)NC(=O)[C@@H]6CCCN6C(=O)[C@H](Cc6c[nH]cn6)NC5=O)C(=O)N[C@@H](CCCNC(=N)N)C(=O)NCC(=O)N[C@@H](CC(=O)O)C(=O)N[C@@H](C(N)=O)CSC7)cc4)nn3)cc1)C(=O)N[C@@H](Cc1c[nH]cn1)C(=O)N1CCC[C@H]1C(=O)N[C@@H](CCC(N)=O)C(=O)N2 [[^125I]bcRGDdimer] | 22% | -1.98 | 6% |
| N=C(N)NCCC[C@@H]1NC(=O)[C@H]2CSCc3cc(cc(c3)CSC[C@H](C(N)=O)NC(=O)[C@H](CC(=O)O)NC(=O)CNC1=O)CSC[C@H](NC(=O)CNC(=O)[C@H](CO)NC(=O)c1ccc(NC(=O)CNC(=O)[C@H](CO)NC(=O)[C@@H]3CCCN3C(=O)[C@@H]3CCCN3C(=O)[C@@H]3CCCN3C(=O)[C@H](CCCCNC(=O)c3cccc(I)c3)NC(=O)CCCc3ccc(I)cc3)cc1)C(=O)N[C@@H](Cc1c[nH]cn1)C(=O)N1CCC[C@H]1C(=O)N[C@@H](CCC(N)=O)C(=O)N2 [[^125I]bcRGDiba] ({Butanoyl(4-(4-I-phenyl))}-K(Benzoyl(3-I))PPPSG[4Abz]SGCHPQ[dC]RGD[dC]-NH2; linker 10-14-18 via TBMB) | > 80% | -0.97 | 60% |
| CCCCCCCCCCCCCCCC(=O)N[C@@H](CCCCNC(=O)c1cccc(I)c1)C(=O)N1CCC[C@H]1C(=O)N1CCC[C@H]1C(=O)N1CCC[C@H]1C(=O)N[C@@H](CO)C(=O)NCC(=O)Nc1ccc(C(=O)N[C@@H](CO)C(=O)NCC(=O)N[C@H]2CSCc3cc4cc(c3)CSC[C@@H](NC(=O)[C@H](CCC(N)=O)NC(=O)[C@@H]3CCCN3C(=O)[C@H](Cc3c[nH]cn3)NC2=O)C(=O)N[C@@H](CCCNC(=N)N)C(=O)NCC(=O)N[C@@H](CC(=O)O)C(=O)N[C@@H](C(N)=O)CSC4)cc1 [[^125I]bcRGDpal] (Palmitoyl-K(Benzoyl(3-I))PPPSG[4Abz]SGCHPQ[dC]RGD[dC]-NH2; linker 10-14-18 via TBMB) | > 80% | 1.71 and > 1 | 80% |
